Test results: patent US20250127801A1, “BRIDGED TRICYCLIC CARBAMOYLPYRIDONE COMPOUNDS AND USES THEREOF” (priority 2023, published 2025)
Where two headings read alike, the source gives them in different places.

How the values were obtained:
[1] = in vitro; settings: human; for CC50 at 5 days: uninfected MT-4 cells
[2] = tested on: HIV-1 (IIIB); assay: microbe, parasite or virus in culture; format: cell-based
[3] = Human immunodeficiency virus 1, MT4, 120 h, HIV-1 (IIIB) replication in MT-4 cells, 5 days incubation, Cell Titer Glo, read-out: MT4 EC50
[4] = Human immunodeficiency virus 1, IIIB, MT4, 120 h, read-out: MT4 EC50 (nM)

EC50 [2, 3] [nM] | SMILES | CC50 at 5 days [1] [µM] | CC50 [1] [µM] | EC50 [2, 4] [nM]
2.05 | CC1=NO[C@@]2(CC[C@H](C)N3C[C@H]2n2cc(C(=O)NCc4ccc(F)cc4F)c(=O)c(OCOC(=O)O[C@H]4CCCCC[C@@H]4OP(=O)(O)O)c2C3=O)C1 [Compound 77, (((3′S,5S,7′R)-10′-((2,4-difluorobenzyl)carbamoyl)-3,3′-dimethyl-1′,11′-dioxo-1′,4′,5′,11′-tetrahydro-3′H,4H,7′H-spiro[isoxazole-5,6′-[2,7]methanopyrido[1,2-a][1,4]diazonin]-12′-yl)oxy)methyl ((1S,2S)-2-(phosphonooxy)cycloheptyl) carbonate] | 19.4 |  | 
 | CC1=NO[C@@]2(CC[C@H](C)N3C[C@H]2n2cc(C(=O)NCc4ccc(F)cc4F)c(=O)c(OCOC(=O)CC(C)(C)c4c(CC(=O)NCP(=O)(O)O)cc(C)cc4OP(=O)(O)O)c2C3=O)C1 [Compound 81, ((2-(2-(4-((((3′S,5S,7′R)-10′-((2,4-difluorobenzyl)carbamoyl)-3,3′-dimethyl-1′,11′-dioxo-1′,4′,5′,11′-tetrahydro-3′H,4H,7′H-spiro[isoxazole-5,6′-[2,7]methanopyrido[1,2-al][1,4]diazonin]-12′-yl)oxy)methoxy)-2-methyl-4-oxobutan-2-yl)-5-methyl-3-(phosphonooxy)phenyl)acetamido)methyl)phosphonic acid] |  | 14.4 | 2.09
 | CC1=NO[C@@]2(CC[C@H](C)N3C[C@H]2n2cc(C(=O)NCc4ccc(F)cc4F)c(=O)c(OC(=O)N(C)c4ncccc4CN(CCC(F)(F)F)C(=O)OCOP(=O)(O)O)c2C3=O)C1 [Compound 82, (3′S,5S,7′R)-10′-((2,4-difluorobenzyl)carbamoyl)-3,3′-dimethyl-1′,11′-dioxo-1′,4′,5′,11′-tetrahydro-3′H,4H,7′H-spiro[isoxazole-5,6′-[2,7]methanopyrido[1,2-a][1,4]diazonin]-12′-yl methyl(3-(((((phosphonooxy)methoxy)carbonyl)(3,3,3-trifluoropropyl)amino)methyl)pyridin-2-yl)carbamate] |  | 8.52 | 2.17
 | COC1=NO[C@@]2(CC[C@H](C)N3C[C@H]2n2cc(C(=O)NCc4ccc(F)cc4F)c(=O)c(OCOC(=O)CC(C)(C)c4c(CC(=O)O)cc(C)cc4OP(=O)(O)O)c2C3=O)C1 [Compound 21, 2-(2-(4-((((3′S,5S,7′R)-10′-((2,4-difluorobenzyl)carbamoyl)-3-methoxy-3′-methyl-1′,11′-dioxo-1′,4′,5′,11′-tetrahydro-3′H,4H,7′H-spiro[isoxazole-5,6′-[2,7]methanopyrido[1,2-a][1,4]diazonin]-12′-yl)oxy)methoxy)-2-methyl-4-oxobutan-2-yl)-5-methyl-3-(phosphonooxy)phenyl)acetic acid] |  | 12.6 | 2.54
1.69 | CC1=NO[C@@]2(CC[C@H](C)N3C[C@H]2n2cc(C(=O)NCc4ccc(F)cc4F)c(=O)c(OCOC(=O)O[C@@H]4CCCC[C@@H]4OP(=O)(O)O)c2C3=O)C1 [Compound 50, (((3′S,5S,7′R)-10′-((2,4-difluorobenzyl)carbamoyl)-3,3′-dimethyl-1′,11′-dioxo-1′,4′,5′,11′-tetrahydro-3′H,4H,7′H-spiro[isoxazole-5,6′-[2,7]methanopyrido[1,2-a][1,4]diazonin]-12′-yl)oxy)methyl ((1R,2S)-2-(phosphonooxy)cyclohexyl) carbonate] | 21.6 |  | 
3.09 | CC1=NO[C@@]2(CC[C@H](C)N3C[C@H]2n2cc(C(=O)NCc4ccc(F)cc4F)c(=O)c(OCOC(=O)N(C)c4ncccc4CN(CC(=O)N[C@@H](CC(=O)O)C(=O)O)C(=O)OCOP(=O)(O)O)c2C3=O)C1 [Compound 36, N-((2-((((((3′S,5S,7′R)-10′-((2,4-difluorobenzyl)carbamoyl)-3,3′-dimethyl-1′,11′-dioxo-1′,4′,5′,11′-tetrahydro-3′H,4H,7′H-spiro[isoxazole-5,6′-[2,7]methanopyrido[1,2-a][1,4]diazonin]-12′-yl)oxy)methoxy)carbonyl)(methyl)amino)pyridin-3-yl)methyl)-N-(((phosphonooxy)methoxy)carbonyl)glycyl-L-aspartic acid] | 22 |  | 
 | CC1=NO[C@@]2(CC[C@H](C)N3C[C@H]2n2cc(C(=O)NCc4ccc(F)cc4F)c(=O)c(OCOC(=O)N(C)c4ncccc4CN(CC(=O)N[C@@H](CCC(=O)O)C(=O)O)C(=O)OCOP(=O)(O)O)c2C3=O)C1 [Compound 60, N-((2-((((((3′S,5S,7′R)-10′-((2,4-difluorobenzyl)carbamoyl)-3,3′-dimethyl-1′,11′-dioxo-1′,4′,5′,11′-tetrahydro-3′H,4H,7′H-spiro[isoxazole-5,6′-[2,7]methanopyrido[1,2-a][1,4]diazonin]-12′-yl)oxy)methoxy)carbonyl)(methyl)amino)pyridin-3-yl)methyl)-N-(((phosphonooxy)methoxy)carbonyl)glycyl-L-glutamic acid] |  | 13.8 | 1.59
1.47 | CC1=NO[C@@]2(CC[C@H](C)N3C[C@H]2n2cc(C(=O)NCc4ccc(F)cc4F)c(=O)c(OCOC(=O)OC[C@@H]4CCCC[C@@H]4OP(=O)(O)O)c2C3=O)C1 [Compound 52, (((3′S,5S,7′R)-10′-((2,4-difluorobenzyl)carbamoyl)-3,3′-dimethyl-1′,11′-dioxo-1′,4′,5′,11′-tetrahydro-3′H,4H,7′H-spiro[isoxazole-5,6′-[2,7]methanopyrido[1,2-a][1,4]diazonin]-12′-yl)oxy)methyl (((1S,2S)-2-(phosphonooxy)cyclohexyl)methyl) carbonate] | 13 |  | 
12.3 | COC1=NO[C@@]2(CC[C@H](C)N3C[C@H]2n2cc(C(=O)NCc4ccc(F)cc4F)c(=O)c(OCOP(=O)(O)OCc4ccccc4)c2C3=O)C1 [Compound 18, benzyl ((((3′S,5S,7′R)-10′-((2,4-difluorobenzyl)carbamoyl)-3-methoxy-3′-methyl-1′,11′-dioxo-1′,4′,5′,11′-tetrahydro-3′H,4H,7′H-spiro[isoxazole-5,6′-[2,7]methanopyrido[1,2-a][1,4]diazonin]-12′-yl)oxy)methyl) hydrogen phosphate] | ≥ 50 |  | 
 | CCCCCCCCCCCCCC(=O)NCc1ccccc1C(=O)Oc1c2n(cc(C(=O)NCc3ccc(F)cc3F)c1=O)[C@@H]1CN(C2=O)[C@@H](C)CC[C@]12CC(OC)=NO2 [Compound 101, (3′S,5S,7′R)-10′-((2,4-difluorobenzyl)carbamoyl)-3-methoxy-3′-methyl-1′,11′-dioxo-1′,4′,5′,11′-tetrahydro-3′H,4H,7′H-spiro[isoxazole-5,6′-[2,7]methanopyrido[1,2-a][1,4]diazonin]-12′-yl 2-(tetradecanamidomethyl)benzoate] | ≥ 50 |  | 
 | COCCN(Cc1cccnc1N(C)C(=O)Oc1c2n(cc(C(=O)NCc3ccc(F)cc3F)c1=O)[C@@H]1CN(C2=O)[C@@H](C)CC[C@]12CC(C)=NO2)C(=O)OCOP(=O)(O)O [Compound 83, (3′S,5S,7′R)-10′-((2,4-difluorobenzyl)carbamoyl)-3,3′-dimethyl-1′,11′-dioxo-1′,4′,5′,11′-tetrahydro-3′H,4H,7′H-spiro[isoxazole-5,6′-[2,7]methanopyrido[1,2-a][1,4]diazonin]-12′-yl (3-(((2-methoxyethyl)(((phosphonooxy)methoxy)carbonyl)amino)methyl)pyridin-2-yl)(methyl)carbamate] |  | 13.2 | 1.36
1.91 | COC1=NO[C@@]2(CC[C@H](C)N3C[C@H]2n2cc(C(=O)NCc4ccc(F)cc4F)c(=O)c(OCc4oc(=O)oc4C)c2C3=O)C1 [Compound 103, (3′S,5S,7′R)—N-(2,4-difluorobenzyl)-3-methoxy-3′-methyl-12′-((5-methyl-2-oxo-1,3-dioxol-4-yl)methoxy)-1′,11′-dioxo-1′,4′,5′,11′-tetrahydro-3′H,4H,7′H-spiro[isoxazole-5,6′-[2,7]methanopyrido[1,2-a][1,4]diazonine]-10′-carboxamide] | 18.9 |  | 
 | CC1=NO[C@@]2(CC[C@H](C)N3C[C@H]2n2cc(C(=O)NCc4ccc(F)cc4F)c(=O)c(OCOC(=O)CC(C)(C)c4c(CC(=O)N[C@@H](CCC(=O)O)C(=O)O)cc(C)cc4OP(=O)(O)O)c2C3=O)C1 [Compound 42, (2-(2-(4-((((3′S,5S,7′R)-10′-((2,4-difluorobenzyl)carbamoyl)-3,3′-dimethyl-1′,11′-dioxo-1′,4′,5′,11′-tetrahydro-3′H,4H,7′H-spiro[isoxazole-5,6′-[2,7]methanopyrido[1,2-a][1,4]diazonin]-12′-yl)oxy)methoxy)-2-methyl-4-oxobutan-2-yl)-5-methyl-3-(phosphonooxy)phenyl)acetyl)-L-glutamic acid] |  | 15.7 | 1.9
 | CCCCCCCCCCCCCC(=O)NCc1ccccc1C(=O)Oc1c2n(cc(C(=O)NCc3ccc(F)cc3F)c1=O)[C@@H]1CN(C2=O)[C@@H](C)CC[C@]12CC(C)=NO2 [Compound 102, (3′S,5S,7′R)-10′-((2,4-difluorobenzyl)carbamoyl)-3,3′-dimethyl-1′,11′-dioxo-1′,4′,5′,11′-tetrahydro-3′H,4H,7′H-spiro[isoxazole-5,6′-[2,7]methanopyrido[1,2-a][1,4]diazonin]-12′-yl 2-(tetradecanamidomethyl)benzoate] | 31.8 |  | 
 | COC1=NO[C@@]2(CC[C@H](C)N3C[C@H]2n2cc(C(=O)NCc4ccc(F)cc4F)c(=O)c(OC(=O)Cc4ccc(OP(=O)(O)O)cc4)c2C3=O)C1 [Compound 29, (3′S,5S,7′R)-10′-((2,4-difluorobenzyl)carbamoyl)-3-methoxy-3′-methyl-1′,11′-dioxo-1′,4′,5′,11′-tetrahydro-3′H,4H,7′H-spiro[isoxazole-5,6′-[2,7]methanopyrido[1,2-a][1,4]diazonin]-12′-yl 2-(4-(phosphonooxy)phenyl)acetate] |  | 27.8 | 2.01
